Results: patent US8952024B2, “Herbicidal pyrimidone derivatives” (E I du Pont de Nemours and Company, priority 2009, dated 2015)
Like-named read-outs stand apart in the source and are kept apart here.

How the values were obtained:
Experiment in all cases: Test A pre-/postemergence plant response
Format in all cases: in vivo
[1] = test system: barnyardgrass (Echinochloa crus-galli); details: for pest or weed control at 125 g/ha / pest or weed control at 500 g/ha: Echinochloa crus-galli, 240 h
Procedure, shortened: (§1)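 Visually rated 0–100 injury (100 = complete control) versus untreated plants, ~10 days in greenhouse. Application pre- (soil spray, loam/sand) and postemergence (2–10 cm, 1–2 leaf stage), same timepoint.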

corn (Zea mays) = test system: corn (Zea mays)
Procedure, shortened: as §1

[2] = test system: giant foxtail (Setaria faberii); details: for pest or weed control at 125 g/ha / pest or weed control at 500 g/ha: Setaria faberi, 240 h
Procedure, shortened: as §1

[3] = test system: large crabgrass (Digitaria sanguinalis); details: for pest or weed control at 125 g/ha / pest or weed control at 500 g/ha: Digitaria sanguinalis, 240 h
Procedure, shortened: as §1

[4] = test system: morningglory (Ipomoea spp.); details: for pest or weed control at 125 g/ha / pest or weed control at 500 g/ha: Ipomoea, 240 h
Procedure, shortened: as §1

[5] = test system: pigweed (Amaranthus retroflexus)
Procedure, shortened: as §1

[6] = test system: velvetleaf (Abutilon theophrasti); details: for pest or weed control at 125 g/ha / pest or weed control at 500 g/ha: Abutilon theophrasti, 240 h
Procedure, shortened: as §1

[7] = test system: wheat (Triticum aestivum); details: for plant injury at 125 g/ha / plant injury at 500 g/ha: Triticum aestivum, 240 h
Procedure, shortened: as §1

[8] = Postemergence, 125 g ai/ha, visual injury, 0 to 100 scale (0 no effect, 100 complete control), approx. ten days
[9] = Postemergence, 500 g ai/ha, 0 to 100 scale, 0 = no effect, 100 = complete control, approx. ten days
[10] = Preemergence, 125 g ai/ha, 0 to 100 scale, 0 = no effect, 100 = complete control
[11] = Preemergence, 500 g ai/ha, visual injury, 0 to 100 scale (0 no effect, 100 complete control), approx. ten days

CCn1ncc(C(=O)c2cnc(-c3ccccc3)n(Cc3ccccc3)c2=O)c1O [Compound 20, 5-[(1-ethyl-5-hydroxy-1H-pyrazol-4-yl)carbonyl]-2-phenyl-3-(phenylmethyl)-4(3H)-pyrimidinone]
70%: pest or weed control at 500 g/ha ([6]; post-emergence, Postemergence, 500 g ai/ha, 0 to 100 scale, 0 = no effect, 100 = complete control, approx. ten days, read-out: Plant response rating, Velvetleaf)
30%: pest or weed control at 500 g/ha ([3]; pre-emergence, Preemergence, 500 g ai/ha, visual injury, 0 to 100 scale (0 no effect, 100 complete control), approx. ten days, read-out: Plant response rating, Crabgrass, Large)
50%: pest or weed control at 500 g/ha ([5]; Amaranthus retroflexus, post-emergence, 240 h, Postemergence, 500 g ai/ha, 0 to 100 scale, 0 = no effect, 100 = complete control, approx. ten days, read-out: Plant response rating, Pigweed) | pest or weed control at 500 g/ha ([6]; pre-emergence, Preemergence, 500 g ai/ha, visual injury, 0 to 100 scale (0 no effect, 100 complete control), approx. ten days, read-out: Plant response rating, Velvetleaf)
0%: pest or weed control at 125 g/ha ([1]; post-emergence, Postemergence, 125 g ai/ha, visual injury, 0 to 100 scale (0 no effect, 100 complete control), approx. ten days, read-out: Barnyardgrass plant response rating) | pest or weed control at 125 g/ha ([1]; pre-emergence, Preemergence, 125 g ai/ha, 0 to 100 scale, 0 = no effect, 100 = complete control, read-out: Plant response rating, Barnyardgrass) | plant injury at 125 g/ha (corn (Zea mays); Zea mays, post-emergence, 240 h, Postemergence, 125 g ai/ha, visual injury, 0 to 100 scale (0 no effect, 100 complete control), approx. ten days, read-out: Corn plant response rating) | Corn plant response rating (crop injury, 0 = no effect, 100 = complete kill) at 125 g/ha (corn (Zea mays); Zea mays, pre-emergence, 240 h, Preemergence, 125 g ai/ha, 0 to 100 scale, 0 = no effect, 100 = complete control) | Corn plant response rating (crop injury, 0 = no effect, 100 = complete kill) at 500 g/ha (corn (Zea mays); Zea mays, pre-emergence, 240 h, Preemergence, 500 g ai/ha, visual injury, 0 to 100 scale (0 no effect, 100 complete control), approx. ten days) | pest or weed control at 125 g/ha ([2]; post-emergence, Postemergence, 125 g ai/ha, visual injury, 0 to 100 scale (0 no effect, 100 complete control), approx. ten days, read-out: Foxtail, Giant plant response rating) | pest or weed control at 500 g/ha ([2]; post-emergence, Postemergence, 500 g ai/ha, 0 to 100 scale, 0 = no effect, 100 = complete control, approx. ten days, read-out: Plant response rating, Foxtail, Giant) | pest or weed control at 125 g/ha ([2]; pre-emergence, Preemergence, 125 g ai/ha, 0 to 100 scale, 0 = no effect, 100 = complete control, read-out: Plant response rating, Foxtail, Giant) | pest or weed control at 125 g/ha ([3]; post-emergence, Postemergence, 125 g ai/ha, visual injury, 0 to 100 scale (0 no effect, 100 complete control), approx. ten days, read-out: Crabgrass, Large plant response rating) | pest or weed control at 125 g/ha ([3]; pre-emergence, Preemergence, 125 g ai/ha, 0 to 100 scale, 0 = no effect, 100 = complete control, read-out: Plant response rating, Crabgrass, Large) | pest or weed control at 125 g/ha ([4]; post-emergence, Postemergence, 125 g ai/ha, visual injury, 0 to 100 scale (0 no effect, 100 complete control), approx. ten days, read-out: Morningglory plant response rating) | pest or weed control at 125 g/ha ([4]; pre-emergence, Preemergence, 125 g ai/ha, 0 to 100 scale, 0 = no effect, 100 = complete control, read-out: Plant response rating, Morningglory) | pest or weed control at 500 g/ha ([4]; pre-emergence, Preemergence, 500 g ai/ha, visual injury, 0 to 100 scale (0 no effect, 100 complete control), approx. ten days, read-out: Plant response rating, Morningglory) | pest or weed control at 125 g/ha ([5]; Amaranthus retroflexus, pre-emergence, 240 h, Preemergence, 125 g ai/ha, 0 to 100 scale, 0 = no effect, 100 = complete control, read-out: Plant response rating, Pigweed) | pest or weed control at 125 g/ha ([6]; pre-emergence, Preemergence, 125 g ai/ha, 0 to 100 scale, 0 = no effect, 100 = complete control, read-out: Plant response rating, Velvetleaf) | plant injury at 125 g/ha ([7]; post-emergence, Postemergence, 125 g ai/ha, visual injury, 0 to 100 scale (0 no effect, 100 complete control), approx. ten days, read-out: Wheat plant response rating) | plant injury at 500 g/ha ([7]; post-emergence, Postemergence, 500 g ai/ha, 0 to 100 scale, 0 = no effect, 100 = complete control, approx. ten days, read-out: Plant response rating, Wheat) | plant injury at 125 g/ha ([7]; pre-emergence, Preemergence, 125 g ai/ha, 0 to 100 scale, 0 = no effect, 100 = complete control, read-out: Plant response rating, Wheat) | plant injury at 500 g/ha ([7]; pre-emergence, Preemergence, 500 g ai/ha, visual injury, 0 to 100 scale (0 no effect, 100 complete control), approx. ten days, read-out: Plant response rating, Wheat)
10%: pest or weed control at 500 g/ha ([1]; post-emergence, Postemergence, 500 g ai/ha, 0 to 100 scale, 0 = no effect, 100 = complete control, approx. ten days, read-out: Plant response rating, Barnyardgrass) | Corn plant response rating (crop injury, 0 = no effect, 100 = complete kill) at 500 g/ha (corn (Zea mays); Zea mays, post-emergence, 240 h, Postemergence, 500 g ai/ha, 0 to 100 scale, 0 = no effect, 100 = complete control, approx. ten days) | pest or weed control at 500 g/ha ([3]; post-emergence, Postemergence, 500 g ai/ha, 0 to 100 scale, 0 = no effect, 100 = complete control, approx. ten days, read-out: Plant response rating, Crabgrass, Large) | pest or weed control at 500 g/ha ([4]; post-emergence, Postemergence, 500 g ai/ha, 0 to 100 scale, 0 = no effect, 100 = complete control, approx. ten days, read-out: Plant response rating, Morningglory) | pest or weed control at 125 g/ha ([5]; Amaranthus retroflexus, post-emergence, 240 h, Postemergence, 125 g ai/ha, visual injury, 0 to 100 scale (0 no effect, 100 complete control), approx. ten days, read-out: Pigweed plant response rating)
20%: pest or weed control at 500 g/ha ([1]; pre-emergence, Preemergence, 500 g ai/ha, visual injury, 0 to 100 scale (0 no effect, 100 complete control), approx. ten days, read-out: Plant response rating, Barnyardgrass) | pest or weed control at 500 g/ha ([2]; pre-emergence, Preemergence, 500 g ai/ha, visual injury, 0 to 100 scale (0 no effect, 100 complete control), approx. ten days, read-out: Plant response rating, Foxtail, Giant) | pest or weed control at 125 g/ha ([6]; post-emergence, Postemergence, 125 g ai/ha, visual injury, 0 to 100 scale (0 no effect, 100 complete control), approx. ten days, read-out: Velvetleaf plant response rating)

COc1cccc(-n2c(-c3ccccc3)ncc(C(=O)C3=C(O)CCCC3=O)c2=O)c1 [Compound 19]
20: Foxtail, Giant plant response rating [2, 8] | Plant response rating, Crabgrass, Large [3, 9] | Plant response rating, Crabgrass, Large [3, 10]
80: Plant response rating, Crabgrass, Large [3, 11] | Pigweed plant response rating [5, 8] | Plant response rating, Pigweed [5, 10]
30: Plant response rating, Foxtail, Giant [2, 11]
50: Plant response rating, Foxtail, Giant [2, 9] | Plant response rating, Morningglory [4, 11] | Plant response rating, Velvetleaf [6, 10]
60: Plant response rating, Morningglory [4, 9]
70: Plant response rating, Barnyardgrass [1, 9]
100: Plant response rating, Pigweed [5, 9] | Velvetleaf plant response rating [6, 8] | Plant response rating, Velvetleaf [6, 9] | Plant response rating, Velvetleaf [6, 11]
90: Plant response rating, Barnyardgrass [1, 11] | Plant response rating, Pigweed [5, 11]
0: Barnyardgrass plant response rating [1, 8] | Corn plant response rating (corn (Zea mays); [8]) | Plant response rating, Corn (corn (Zea mays); [10]) | Plant response rating, Corn (corn (Zea mays); [11]) | Crabgrass, Large plant response rating [3, 8] | Morningglory plant response rating [4, 8] | Plant response rating, Morningglory [4, 10] | Wheat plant response rating [7, 8] | Plant response rating, Wheat [7, 9] | Plant response rating, Wheat [7, 10] | Plant response rating, Wheat [7, 11]
10: Plant response rating, Barnyardgrass [1, 10] | Plant response rating, Corn (corn (Zea mays); [9]) | Plant response rating, Foxtail, Giant [2, 10]
